Experimental data from patent US10407488B2, “Therapy for treatment or prevention of conditions associated with bleeding or hypocoagulation” (THE REGENTS OF THE UNIVERSITY OF CALIFORNIA, priority 2013, dated 2019).

Legend:
Balb/c mice [1] = test: Liver laceration bleeding assay, APC-induced bleeding in Balb/c mice; assay type: in vivo
Method: Mice were anesthetized with Isofluorane 3% and the abdomen was opened by substernal blunt midline dissection. […] Immediately after laceration mice were positioned prone into a small weighing dish (8 cm diameter) filled with saline (37° C., 13 mL), transferred into the anesthesia chamber which rested on a heating pad (37° C.). Anesthesia was maintained at 3% Isofluorane and dishes were changed after 10 minutes to collect blood for the first and second 10 minutes separately. Blood loss was determined as described for the tail clip model. Groups of Balb/c mice were injected intravenously (tail vein) with equal volumes (200 μL) of ^superFVa or saline 2 minutes prior to intravenous injection of plasma-derived human APC, followed immediately by liver laceration. All agents were diluted in sterile sodium chloride 0.9% for injection (Hospira Inc).

[2] = tested on: thrombin generation in plasma of patients with congenital FVIII-deficiency and inhibitors; test: Thrombin generation in plasma of patients with congenital FVIII-deficiency and high titer inhibitors, spiked in vitro; assay type: biochemical, human; conditions: factor alone; five patient samples, BU-titer 41-280
Excerpt: Normal pooled human plasma and plasma from human FVIII-deficient patients with and without inhibitors (titer specified in Bethesda Units (BU)) was purchased from George King Bio-Medical (Overland Park, Kans., USA). In addition, plasma and clinical information was obtained from two patients with severe FVIII-deficiency (<1% intrinsic FVIII-activity levels) and inhibitors (titers determined in BU by the clinical laboratory using the Nijmegen assay (17) regularly visiting the Hemophilia Treatment Center at the University of California, San Diego (UCSD) after informed consent was obtained. Patient confidentiality safeguards, sample and data acquisition methods were approved by the UCSD Institutional Review Board. Blood was drawn into 3.8% sodium citrate (pH 5.5) at a 9:1 blood/anticoagulant volume ratio, and processed immediately. […]
Endogenous thrombin potential (ETP) assays were performed as described (19). […] In some experiments, 1.25 μg/ml anti-FVIII antibody was added to the plasma and ETP was determined after 1 hour of preincubation. Fluorescence was measured at excitation/emission wavelengths of […] using Gemini EM fluorescent plate reader (Molecular Devices). Fluorescence time course data were converted to nM thrombin as described (20). ETP, defined as the area under the curve (AUC) and the peak height were determined using Origin or GraphPad Prism software.

[3] = tested on: aPTT clotting time in murine plasma; test: aPTT clotting assay in murine plasma with rhAPC; assay type: biochemical, mouse; conditions: 5 U/mL FVa variants, APC, ~100 seconds without FVa
Method: APC-mediated inactivation of FVa was analyzed in ETP assays and aPTT clotting assays. FVa mutants were incubated with equal volumes of either recombinant human APC (Xigris®) or buffer in human and murine Balb/c plasma.
Plasma (50 μL) was mixed with 50 μL of a PTT reagent (APTT-XL, Pacific Hemostasis) and incubated at 37° C. for 3 minutes in the presence of FVa either with recombinant human APC or buffer. Following addition of 25 μL of 50 mM CaCl2 in HBS, 0.5% BSA, the clotting time was recorded using an ST4 coagulometer (Diagnostica Stago).

FVIII-deficient mice = test: Tail clip bleeding assay in FVIII-deficient mice; assay type: in vivo, mouse; conditions: 20 minutes
Method: (§1) Mice were anesthetized with Isoflurane 3%, placed on temperature controlled heating pads (37° C.), and the distal portion of the tail was cut at 1.5 mm diameter after which the tail was immersed in a predefined volume of 37° C. saline (0.9% NaCl) for 20 minutes. To study effects on bleeding and clot stability, tubes were changed after 10 minutes to collect blood for the first and second 10 minutes separately. Blood loss was determined by the hemoglobin concentration in the saline solution after red cell lysis with 2% acetic acid and measured by absorbance at 490 nm. Using a hemoglobin standard derived from defined blood volumes, blood loss was calculated assuming a hematocrit of 46% and expressed in μL/g body weight. Groups of Balb/c mice were injected intravenously (tail vein) with equal volumes (200 μL) of ^superFVa or saline 2 minutes prior to intravenous injection of rhAPC (Xigris®). Immediately after APC injection tail cut was performed. All agents were diluted in sterile sodium chloride 0.9% for injection (Hospira Inc).
Mice were anesthetized, placed on temperature controlled heating pads (37° C.), and the distal portion of the tail was cut at 1.5 mm diameter after which the tail was immersed in a predefined volume of 37° C. saline (0.9% NaCl) for 20 minutes. Blood loss was determined by the hemoglobin concentration in the saline solution after red cell lysis with 2% acetic acid and measured by absorbance at 405 nm. Using a hemoglobin standard derived from defined blood volumes, blood loss was calculated assuming a hematocrit of 46% and expressed in μL/g body weight. Groups of FVIII-deficient mice were injected intravenously (retro-orbital) within 2 minutes prior to tail cut with equal volumes ([…]) of sterile saline for injection (0.9%, Hospira Inc.), rhFVIII 200 units/kg FVIII (Xyntha®, Pfizer, NY, N.Y., USA) ^superFVa, rhFVIIa (NovoSeven®, NovoNordisk, Bagsvaerd, Denmark) or a combination of ^superFVa and rhFVIIa. All agents were diluted in sterile sodium chloride 0.9% for injection (Hospira Inc). […]

Balb/c mice [4] = test: Tail clip bleeding assay, APC-induced bleeding in Balb/c mice; assay type: in vivo, mouse
Method: as §1

For “^superFVa: engineered APC-resistant FVa variant (SEQ ID NO:4): R306Q, R506Q, R679Q, Cys609-Cys1691 disulfide, S2183A, B-domain deleted”, the mean blood loss (Balb/c mice [1]; ^superFVa (25 U/mL) prior to APC 1.25 mg/kg, 20 minutes after liver laceration) was 29 µL/g, the bleeding-induced mortality (Balb/c mice [1]; ^superFVa prior to APC, liver laceration) was “abolished bleeding-induced mortality” and the “bleeding during the 2nd 10 min phase” value (Balb/c mice [1]; ^superFVa prior to wt APC, liver laceration) was “fully prevented bleeding”. For the same substance, the “effect on ETP and peak height” value [2] was “increased ETP and peak height in all five patient samples”, the aPTT [3] was “fully corrected the aPTT” and the mean blood loss (FVIII-deficient mice; ^superFVa 10 U/kg iv) was 25.9 µL/g. The mean blood loss (FVIII-deficient mice; ^superFVa 40 U/kg iv) was 9.7 µL/g, the mean blood loss (FVIII-deficient mice; ^superFVa 200 U/kg iv) was 2.5 µL/g and the mean blood loss (Balb/c mice [4]; ^superFVa 5 U/mL 2 minutes prior to APC 1.25 mg/kg, 20 minutes) was 21 µL/g. For the same substance, the mean blood loss (Balb/c mice [4]; ^superFVa 25 U/mL 2 minutes prior to APC 1.25 mg/kg, 20 minutes) was 9.2 µL/g, the mean blood loss (Balb/c mice [4]; ^superFVa 25 U/mL + APC, first 10 minutes) was 4.3 µL/g and the mean blood loss (Balb/c mice [4]; ^superFVa 25 U/mL + APC, second 10 minutes) was 4.8 µL/g. The mean blood loss (Balb/c mice [4]; ^superFVa iv 3.5 mg/kg 2 min prior to wt APC 1.25 mg/kg) was 9.2 µL/g.
